Source: US11985974B2, “Antimicrobial ferulic acid derivatives and uses thereof” (WISCONSIN ALUMNI RESEARCH FOUNDATION, priority 2014, dated 2024)

Legend:
[1] = test system: Alternaria solani (field isolate); assay: Colony growth of A. solani on plates; type: cell-based; details: 0, 500, 1,000, 1,500 μg/mL, dose-dependent
Description: To test inhibition in liquid culture, a dose curve of 0, 125, 250, and 500 μg/mL poacic acid in 100 mL potato dextrose broth (n=3) was used. Cultures of S. sclerotiorum strain 1980 were inoculated with 100 μL homogenized mycelia and grown at 25° C. for 48 h. The mycelia in the liquid media were dried and weighed. The growth inhibition of poacic acid on solid agar cultures (potato dextrose agar) was assessed by generating replicate plates (n=3) containing 0, 125, 250, and 500 μg/mL poacic acid. Plates were inoculated with an actively growing plug of S. sclerotiorum and grown at 25° C. The mycelial radial growth after 48 h was measured Inhibition of S. sclerotiorum in planta was tested by inoculating detached soybean leaves of the commercial variety Williams 82 with an agar plug of actively growing S. sclerotiorum mycelia. Leaves were treated one time before inoculation with either an aerosol spray of water with DMSO (control) or a 500 μg/mL solution of poacic acid. Leaves were incubated in a moist environment, and lesion development was monitored up to 120 h postinoculation. […] The growth inhibition of poacic acid was assessed at 0, 500, 1,000, and 1,500 μg/mL in replicate plates (n=3). […] Colony diameter was monitored for each treatment in a time-course experiment. […]

Saccharomyces cerevisiae = assay: Synergy screening; type: cell-based
Description: To test for synergy, a 6×6-dose matrix was initially used to identify potentially synergistic dose combinations, and these points were then confirmed in triplicate. Cultures (200 μL) were grown with combinations of poacic acid (125 μg/mL), caspofungin (12.5 ng/mL), and fluconazole (3.8 μg/mL), and the ODs of relevant single-agent and solvent controls were measured after 24 h. Synergy was determined by comparing actual OD in the presence of compound combinations with an expected value calculated using the multiplicative hypothesis. This method assumes that, in the absence of an interaction, each compound would decrease the OD of the cell culture by the same fraction in the presence of the other compound as it does when applied alone (that is, E=A×B/C, where E is the expected OD, A is OD when compound A is applied alone, B is OD when compound B is applied alone, and C is OD of the control culture (DMSO). In the presence of synergy, the actual OD value is lower than the expected OD. A paired t test was used to confirm statistical significance of this difference in three replicates of the experiment.

Question: What does the source list for COc1cc(/C=C/c2cc(/C=C/C(=O)O)cc(OC)c2O)ccc1O [poacic acid, (E)-4-Hydroxy-3-{2-[(E)-4-hydroxy-3-methoxystyryl]}-5-methoxycinnamic acid]?
Answer: colony growth on plates [1]: significantly (P<0.01) inhibited; synergy with methyl methanesulfonate (MMS) (Saccharomyces cerevisiae): not synergistic; synergy with caspofungin (Saccharomyces cerevisiae; poacic acid 125 μg/mL + caspofungin 12.5 ng/mL, 24 h, P<0.05): significant synergistic effects; synergy with fluconazole (Saccharomyces cerevisiae; poacic acid 125 μg/mL + fluconazole 3.8 μg/mL, 24 h, P<0.01): significant synergy; synergy with staurosporine (Saccharomyces cerevisiae; poacic acid 125 μg/ml + staurosporine 100 ng/ml): synergy
